# Results: patent US20250091992A1, “NOVEL COMPOUNDS AND USES THEREOF” (KANNA HEALTH LIMITED, priority 2021, published 2025)
# Where two headings read alike, the source gives them in different places.
# Experiments:
# TNF-α = experiment: LPS-induced cytokine release from human PBMCs: TNF-α; assay type: cell-based
# Experimental: (§1) Data were tested for normality.
# IL-10 = experiment: LPS-induced cytokine release from human PBMCs: IL-10; assay type: cell-based; conditions: high concentration (10.0 μM)
# Experimental: as §1
# IL-1β = experiment: LPS-induced cytokine release from human PBMCs: IL-1β; assay type: cell-based; conditions: high concentration (10.0 μM)
# Experimental: as §1
# [1] = molecular target: T1, human serotonin transporter (Homo sapiens, UniProt P31645); conditions: for inhibition: 10 µM;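 as to all read-outs here: Read-out: uptake of tritium-labelled serotonin, measured by scintillation counting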
# T1 sequence (P31645 whole entry): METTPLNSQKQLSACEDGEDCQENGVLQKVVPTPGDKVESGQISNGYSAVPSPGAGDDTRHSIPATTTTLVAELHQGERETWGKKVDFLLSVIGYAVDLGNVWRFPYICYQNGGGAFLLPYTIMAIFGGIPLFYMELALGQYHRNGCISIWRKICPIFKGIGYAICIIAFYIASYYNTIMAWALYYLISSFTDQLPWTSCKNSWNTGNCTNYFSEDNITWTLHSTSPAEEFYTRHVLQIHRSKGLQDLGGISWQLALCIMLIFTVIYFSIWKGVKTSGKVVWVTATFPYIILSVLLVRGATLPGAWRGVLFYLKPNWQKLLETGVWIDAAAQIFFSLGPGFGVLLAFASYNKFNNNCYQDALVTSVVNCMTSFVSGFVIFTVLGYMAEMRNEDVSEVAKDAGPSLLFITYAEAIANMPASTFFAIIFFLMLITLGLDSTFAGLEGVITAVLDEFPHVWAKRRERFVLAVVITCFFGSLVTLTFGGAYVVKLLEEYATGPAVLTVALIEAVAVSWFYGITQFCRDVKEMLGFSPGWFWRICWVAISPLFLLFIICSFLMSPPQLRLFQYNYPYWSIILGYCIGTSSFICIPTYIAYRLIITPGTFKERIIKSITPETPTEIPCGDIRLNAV
# Experimental: (§6) Following incubation, [^3H] serotonin uptake was quantified by a standard scintillation counting method.
# [2] = molecular target: T1, human serotonin transporter; experiment: cell-based
# Experimental: as §6
# [3] = molecular target: human recombinant PDE-4B1 (Homo sapiens, UniProt Q07343); experiment: PDE4-B1 assay (Compounds of Formula I), SPA; assay type: biochemical; conditions: for IC50: 4-parameter logistical fit, two technical replicates
# Sequence of human recombinant PDE-4B1 (Q07343 whole entry): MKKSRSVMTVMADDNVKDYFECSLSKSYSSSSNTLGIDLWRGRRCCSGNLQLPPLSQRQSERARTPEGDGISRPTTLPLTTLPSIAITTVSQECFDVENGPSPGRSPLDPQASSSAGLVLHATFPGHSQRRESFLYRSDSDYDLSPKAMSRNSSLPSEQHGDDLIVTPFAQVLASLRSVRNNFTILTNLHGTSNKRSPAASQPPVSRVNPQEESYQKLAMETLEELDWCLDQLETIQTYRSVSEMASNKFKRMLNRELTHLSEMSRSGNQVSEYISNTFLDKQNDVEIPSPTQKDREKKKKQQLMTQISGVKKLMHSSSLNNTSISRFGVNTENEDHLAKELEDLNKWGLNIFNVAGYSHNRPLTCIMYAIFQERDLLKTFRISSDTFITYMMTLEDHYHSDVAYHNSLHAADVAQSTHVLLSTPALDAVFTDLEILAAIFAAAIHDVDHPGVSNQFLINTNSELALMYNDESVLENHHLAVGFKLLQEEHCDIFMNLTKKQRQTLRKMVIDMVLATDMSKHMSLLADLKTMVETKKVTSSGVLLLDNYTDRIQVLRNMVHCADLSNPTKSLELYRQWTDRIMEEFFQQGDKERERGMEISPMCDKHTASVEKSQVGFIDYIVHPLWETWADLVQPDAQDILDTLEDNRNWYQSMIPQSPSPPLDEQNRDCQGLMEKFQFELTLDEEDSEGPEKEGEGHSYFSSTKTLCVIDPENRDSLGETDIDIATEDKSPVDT
# Experimental: (§2) 20 mins after addition of human recombinant PDE-4B1 (1.2 IEU) or PDE-4D2 (1.5 IEU), SPA beads were added and incubated at 22° C. for a further 30 mins. [^3H]5′AMP was quantified by a standard scintillation counting method.
# [4] = molecular target: human recombinant PDE-4D2 (Homo sapiens, UniProt Q08499); experiment: PDE4-D2 assay (Compounds of Formula I), SPA; assay type: biochemical; conditions: for IC50: 4-parameter logistical fit, two technical replicates
# Sequence of human recombinant PDE-4D2 (Q08499 303-809): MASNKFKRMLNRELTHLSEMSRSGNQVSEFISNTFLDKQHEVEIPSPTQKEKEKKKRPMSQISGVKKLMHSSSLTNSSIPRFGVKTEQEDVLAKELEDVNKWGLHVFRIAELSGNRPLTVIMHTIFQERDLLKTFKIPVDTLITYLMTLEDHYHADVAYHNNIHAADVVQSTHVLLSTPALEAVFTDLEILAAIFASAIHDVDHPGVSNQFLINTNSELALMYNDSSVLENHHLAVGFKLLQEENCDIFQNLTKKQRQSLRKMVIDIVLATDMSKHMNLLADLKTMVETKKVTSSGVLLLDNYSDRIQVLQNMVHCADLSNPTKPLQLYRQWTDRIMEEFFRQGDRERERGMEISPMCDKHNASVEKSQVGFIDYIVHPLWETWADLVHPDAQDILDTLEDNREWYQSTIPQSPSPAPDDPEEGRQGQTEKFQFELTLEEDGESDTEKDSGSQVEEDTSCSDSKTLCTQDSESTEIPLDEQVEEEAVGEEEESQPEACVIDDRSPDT
# Experimental: as §2
# [5] = Hepatocyte stability study; assay type: in vitro ADME; conditions: human hepatocytes
# Experimental: The compounds were added at a concentration of 1 μM to human hepatocytes (0.5×10^6 cells/ml in Williams E media supplemented with 2 mM L-glutamine and 25 mM HEPES) and incubated for 0, 5, 10, 20, 40 and 60 min at 37° C. Five replicates were performed for each compound.
# [6] = test system: time spent in centre of open field; experiment: Open field test; assay type: in vivo, male C57Bl/6J mice; conditions: for Time spent in centre during open field test, Low dose (0.3 mg/kg): 0.3 mg/kg i.p.; for Time spent in centre during open field test, Low dose (0.3 mg/kg) / Time spent in centre during open field test, High dose (3 mg/kg): 60 minutes before test; for Time spent in centre during open field test, High dose (3 mg/kg): 3 mg/kg i.p.
# Experimental: The open field test is routinely applied in order to assess a compounds ability to affect anxiety, and as such as positive result may be indicative of a compounds anxiolytic activity (Kraeuter et al., 2019).
# (§3) Male C57Bl/6J mice (3-4 months), were assigned to one of three groups receiving either test compound (0.3, 3.0 mg/kg) or vehicle (0.5% (w/v) methyl cellulose) via the i.p. route, 60 minutes before experimental examination.
# (§4) The test compounds used were compound identification numbers 6, 13 and 21 from Table 1.
# The duration of time the mouse spent in central, periphery and corners were quantified, with duration in the central area depicted as the primary outcome measure.
# (§5) Data were tested for normality and outliers were removed.
# in vivo = experiment: in vivo; design: species or system male C57Bl/6J mice; conditions: male, C57Bl/6J, mouse, ip, 30 mg/kg
# Experimental: Groups of 18 male C57Bl/6J mice (weighing between 22.7 and 27.3 g) received a single administration of test compound (30 mg/kg; i.p.) in methylcellulose (0.5% w/v) at a nominal concentration of […].
# Three mice from each dose group were subject to cardiac puncture under general anesthesia at 0.25, 0.50, 1.00, 1.50, 2.00 and 4.00 hours post-dose and plasma samples generated for application of standard LC-MS/MS bioanalytical methods.
# Quantitation of compound concentration was derived from reference calibration data. Pharmacokinetic data were derived from serial plasma concentrations.
# time spent immobile = experiment: Forced swim test; assay type: in vivo, male C57Bl/6J mice; conditions: 60 minutes before test; for Time spent immobile during forced swim test, Low dose (0.3 mg/kg): 0.3 mg/kg i.p.; for Time spent immobile during forced swim test, High dose (3 mg/kg): 3 mg/kg i.p.
# Experimental: The forced swim test is a standard model for examination of potential antidepressant-like activity and represents futility, despair, and motivation behavioural domains.
# as §3, §4
# The duration of time the mouse spent immobile during the forced swim test was measured.
# as §5
# [7] = naturally occurring; cited from earlier work
# 5-HT transporter = 5-HT transporter (Homo sapiens, UniProt P31645); conditions: Harvey et al., 2011; cited from earlier work
# Sequence of 5-HT transporter (P31645 whole entry, species assumed): as the sequence (P31645 whole entry) above
# PDE-4B = PDE-4B (Homo sapiens, UniProt Q07343); conditions: Harvey et al., 2011; cited from earlier work
# Sequence of PDE-4B (Q07343 whole entry, species assumed): as the sequence (Q07343 whole entry) above
# [8] = medium (1.0 μM) and high (10.0 μM) concentration
compound,measurement,setting,value
COc1ccc([C@@]23CCC(=O)C[C@@H]2N(C)CC3)cc1OCC1CC1 [Compound 1],Inhibition of TNF-α release compared to vehicle (significance),TNF-α; [8],inhibited TNF-α release at a statistically significant level
same,Inhibition of IL-10 (significance),IL-10,statistically significantly inhibited
same,Inhibition of IL-β (significance),IL-1β,statistically significantly inhibited
CCCCOc1cc([C@@]23CCC(=O)C[C@@H]2N(C)CC3)ccc1OC [Compound 2],Inhibition of TNF-α release compared to vehicle (significance),TNF-α; [8],inhibited TNF-α release at a statistically significant level
same,Inhibition of IL-10 (significance),IL-10,statistically significantly inhibited
same,IC50,[1],0.03 µM
COc1ccc([C@@]23CCC(=O)C[C@@H]2N(C)CC3)cc1OCC(F)(F)F [Compound 4],IC50,[2],< 0.1 µM
same,IC50,[3],7.1 µM
same,IC50,[4],11.3 µM
[2H]C([2H])([2H])Oc1cc([C@@]23CCC(=O)C[C@@H]2N(C)CC3)ccc1OC [Compound 5],inhibition at 30 µM,"[3]; 30 μM, relative to Ro 20-1724",88%
same,inhibition at 30 µM,"[4]; 30 μM, relative to Ro 20-1724",94%
same,half-life compared with non-deuterated mesembrine,[5],shorter half-life
same,hepatocyte CLint at 1 μM,"[5]; 1 μM, 37° C., read-out: Qualified Clint",21.1 µL/min/1e6 cells
same,half-life at 1 μM,"[5]; 1 μM, 37° C., read-out: Qualified t1/2",65.8 min
same,inhibition,[1],98%
CCOc1cc([C@@]23CCC(=O)C[C@@H]2N(C)CC3)ccc1OC [Compound 6],"Time spent in centre during open field test, Low dose (0.3 mg/kg)",[6],9.4 s
same,"Time spent in centre during open field test, High dose (3 mg/kg)",[6],8.6 s
same,AUC(0-inf),in vivo,1960 ng·h/mL
same,Cmax,in vivo,2610 ng/mL
same,Tmax,in vivo,15 min
same,half-life,in vivo,33.6 min
same,"Time spent immobile during forced swim test, Low dose (0.3 mg/kg)",time spent immobile,116 s
same,"Time spent immobile during forced swim test, High dose (3 mg/kg)",time spent immobile,88 s
same,IC50,[1],0.002 µM
COc1ccc([C@@]23CCC(=O)C[C@@H]2N(C)CC3)cc1OC1CCCC1 [Compound 11],Inhibition of TNF-α release compared to vehicle (significance),TNF-α; all concentrations,inhibit TNF-α release at a statistically significant level
same,Inhibition of IL-10 (significance),IL-10,statistically significantly inhibited
same,AUC(0-inf),in vivo,1040 ng·h/mL
same,Cmax,in vivo,796 ng/mL
same,Tmax,in vivo,15 min
same,half-life,in vivo,56.4 min
same,IC50,[1],0.8 µM
same,Inhibition of IL-β (significance),IL-1β,statistically significantly inhibited
COc1ccc([C@@]23CCC(=O)C[C@@H]2N(C)CC3)cc1OCc1ccccc1 [Compound 12],IC50,[2],> 10 µM
C=CCOc1cc([C@@]23CCC(=O)C[C@@H]2N(C)CC3)ccc1OC [Compound 13],"Time spent in centre during open field test, Low dose (0.3 mg/kg)",[6],10.6 s
same,"Time spent in centre during open field test, High dose (3 mg/kg)",[6],8.8 s
same,AUC(0-inf),in vivo,2100 ng·h/mL
same,Cmax,in vivo,2330 ng/mL
same,Tmax,in vivo,15 min
same,half-life,in vivo,40.2 min
same,"Time spent immobile during forced swim test, Low dose (0.3 mg/kg)",time spent immobile,119 s
same,"Time spent immobile during forced swim test, High dose (3 mg/kg)",time spent immobile,138 s
same,IC50,[1],0.02 µM
same,inhibition,[1],100%
C#CCOc1cc([C@@]23CCC(=O)C[C@@H]2N(C)CC3)ccc1OC [Compound 15],IC50,[2],< 3 µM
same,IC50,[3],< 3 µM
same,IC50,[4],< 3 µM
CCOc1ccc([C@@]23CCC(=O)C[C@@H]2N(C)CC3)cc1OCC [Compound 21],"Time spent in centre during open field test, Low dose (0.3 mg/kg)",[6],13.7 s
same,"Time spent in centre during open field test, High dose (3 mg/kg)",[6],9.8 s
same,Time spent in the centre compared to vehicle (significance),[6]; low dose of 0.3 mg/kg,statistically significant increase
same,AUC(0-inf),in vivo,1830 ng·h/mL
same,Cmax,in vivo,2430 ng/mL
same,Tmax,in vivo,15 min
same,half-life,in vivo,34.2 min
same,"Time spent immobile during forced swim test, Low dose (0.3 mg/kg)",time spent immobile,105 s
same,"Time spent immobile during forced swim test, High dose (3 mg/kg)",time spent immobile,118 s
same,IC50,[1],0.03 µM
same,inhibition,[1],91%
CCOc1ccc([C@@]23CCC(=O)C[C@@H]2N(C)CC3)cc1OCC1CC1 [Compound 24],AUC(0-inf),in vivo,825 ng·h/mL
same,Cmax,in vivo,492 ng/mL
same,Tmax,in vivo,15 min
same,half-life,in vivo,76.8 min
same,IC50,[1],0.02 µM
same,inhibition,[1],91%
CCOc1ccc([C@@]23CCC(=O)C[C@@H]2N(C)CC3)cc1OC1CCCC1 [Compound 27],Inhibition of TNF-α release compared to vehicle (significance),TNF-α; [8],inhibited TNF-α release at a statistically significant level
same,AUC(0-inf),in vivo,1400 ng·h/mL
same,Cmax,in vivo,831 ng/mL
same,Tmax,in vivo,15 min
same,half-life,in vivo,58.2 min
same,IC50,[1],0.4 µM
same,inhibition,[1],96%
CCOc1ccc([C@@]23CCC(=O)C[C@@H]2N(C)CC3)cc1OC [Compound 31],IC50,[2],< 0.1 µM
CCCCOc1cc([C@@]23CCC(=O)C[C@@H]2N(C)CC3)ccc1OCC1CC1 [Compound 37],IC50,[3],> 30 µM
same,IC50,[4],> 30 µM
same,IC50,[1],0.8 µM
C=CCOc1cc([C@@]23CCC(=O)C[C@@H]2N(C)CC3)ccc1OCC1CC1 [Compound 38],IC50,[3],> 30 µM
same,IC50,[4],> 30 µM
same,IC50,[1],0.4 µM
CN1CC[C@]2(c3ccc(OCC4CC4)c(OC4CCCC4)c3)CCC(=O)C[C@H]12 [Compound 39],IC50,[3],> 30 µM
same,IC50,[4],> 30 µM
same,IC50,[1],4.5 µM
COc1ccc([C@]23CCC(=O)C=C2N(C)CC3)cc1OC [Compound 40],IC50,[2],> 3 µM
same,IC50,[3],> 3 µM
same,IC50,[4],> 3 µM
COc1ccc([C@@]23CCC(=O)C=C2N(C)CC3)cc1OC [Compound 41],IC50,[2],< 3 µM
same,IC50,[3],> 3 µM
same,IC50,[4],> 3 µM
COc1ccc([C@@]23CCC(=O)C=C2N(C)CC3)cc1OC1CCCC1 [Compound 42],IC50,[2],> 3 µM
same,IC50,[3],> 3 µM
same,IC50,[4],< 3 µM
C=CCOc1cc([C@@]23CCC(=O)C=C2N(C)CC3)ccc1OC [Compound 43],IC50,[2],> 3 µM
same,IC50,[3],> 3 µM
same,IC50,[4],> 3 µM
CCOc1ccc(C23C=CC(=O)CC2N(C)CC3)cc1OCC (stereo not shown) [Compound 44],IC50,[2],> 3 µM
same,IC50,[3],< 3 µM
same,IC50,[4],< 3 µM
"COc1ccc([C@@]23CCC(=O)C[C@@H]2N(C)CC3)cc1OC [Mesembrine, mesembrine, reference compound]",solubility in water,[7],scarcely soluble in water
same,Qualified Clint,"[5]; 1 μM, 37° C.",16.3 μl/min/10^6 cells
same,Qualified t1/2,"[5]; 1 μM, 37° C.",84.8
COc1ccc([C@@]23C=C[C@@H](O)C[C@@H]2N(C)CC3)cc1OC [mesembrenol],activity in 5-HT transporter binding assay,5-HT transporter,potently active
same,activity against PDE-4B,PDE-4B,potently active
